Results taken from PubChem BioAssay (NCI).
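Compound exposure: 48 hours, 5 concentrations, 96-well plates. GI50 marks 50% less growth. TGI is the concentration that stops growth completely.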

Experiments:
Assay in all cases: NCI anticancer screen, dose series, 48 h
A549 NSCLC = system: A549 NSCLC
ACHN renal = system: ACHN renal
HCT-116 colon = system: HCT-116 colon
HL-60(TB) leukemia = system: HL-60(TB) leukemia
HOP-62 NSCLC = system: HOP-62 NSCLC
K-562 leukemia = system: K-562 leukemia
MOLT-4 leukemia = system: MOLT-4 leukemia
NCI/ADR-RES ovarian = system: NCI/ADR-RES ovarian
SK-MEL-2 melanoma = system: SK-MEL-2 melanoma
SNB-19 CNS = system: SNB-19 CNS
SK-OV-3 ovarian = system: SK-OV-3 ovarian

SMILES | TGI (A549 NSCLC) [µM] | TGI (ACHN renal) [µM] | TGI (HCT-116 colon) [µM] | TGI (HL-60(TB) leukemia) [µM] | TGI (HOP-62 NSCLC) [µM] | TGI (K-562 leukemia) [µM] | TGI (MOLT-4 leukemia) [µM] | TGI (NCI/ADR-RES ovarian) [µM] | TGI (SK-MEL-2 melanoma) [µM] | TGI (SNB-19 CNS) [µM] | TGI (SK-OV-3 ovarian) [µM] | GI50 (A549 NSCLC) [µM] | GI50 (ACHN renal) [µM] | GI50 (HCT-116 colon) [µM] | GI50 (HL-60(TB) leukemia) [µM] | GI50 (HOP-62 NSCLC) [µM] | GI50 (K-562 leukemia) [µM] | GI50 (MOLT-4 leukemia) [µM] | GI50 (NCI/ADR-RES ovarian) [µM] | GI50 (SK-MEL-2 melanoma) [µM]
O=C1NC(=O)C(C(c2ccc([N+](=O)[O-])cc2)C2C(=O)NC(=O)NC2=O)C(=O)N1 | > 100 | > 100 | > 100 | > 100 | > 100 | > 100 | > 100 | > 100 | > 100 | > 100 |  |  |  |  |  |  |  |  |  | 
CN(CCNC(=O)c1nn(-c2ccc(Cl)cc2Cl)c2c1Cc1ccccc1-2)CCNC(=O)c1nn(-c2ccc(Cl)cc2Cl)c2c1Cc1ccccc1-2 | 28.8 | 29.7 | 4.45 | 3.57 | > 45.8 | > 26.3 | 6.81 | 14.9 | 4.32 | > 100 | 97.9 |  |  |  |  |  |  |  |  | 
O=c1oc2cc(O)ccc2c2oc3cc(O)ccc3c12 | 125 |  | 70.2 | > 125 | 54.1 | > 125 | 83.3 | > 125 | > 125 | 91.7 | 70.8 |  |  |  |  |  |  |  |  | 
CN(C)c1ccc(C2CC(=O)CC(c3ccc(N(C)C)cc3)C23C(=O)NC(=S)NC3=O)cc1 (stereo unspecified) | > 100 | > 100 | > 100 | > 100 | 45.6 | > 100 | > 100 | > 100 | > 100 | > 100 | > 100 |  |  |  |  |  |  |  |  | 
N#Cc1ccc([N+](=O)[O-])cc1NC(N)=S | > 100 |  | > 100 |  | > 100 |  | > 100 |  | > 100 | > 100 | > 100 |  |  |  |  |  |  |  |  | 
CN1c2c(nc(N)[nH]c2=O)NCC1CCNc1ccc(C(=O)NC(CCC(=O)O)C(=O)O)cc1 (stereo unspecified) | 2620 | 2000 | 1390 | 2250 | 1930 | 841 | 2650 | 3810 | 3050 | 3250 | 2350 |  |  |  |  |  |  |  |  | 
CC1=C[C@H]([C@H]2C=C(C)C(C(N)=O)=CN2Cc2c(Cl)cccc2Cl)N(Cc2c(Cl)cccc2Cl)C=C1C(N)=O | > 75 | > 75 | > 75 | > 75 | > 75 | > 75 | > 75 | > 75 | > 75 | > 75 | > 75 |  |  |  |  |  |  |  |  | 
O=C1CCCCN1 | > 1120 |  | > 1120 | > 1120 | > 1120 | > 1120 | > 1120 | > 707 | > 1120 | > 1120 | > 1120 |  |  |  |  |  |  |  |  | 
CC1=C(SCCO)C(=O)c2ccccc2C1=O | 32.8 | 13 | 17.4 | > 100 | 29.4 | > 100 | > 100 | 31.9 | 24.5 | 79.6 | 29.6 |  |  |  |  |  |  |  |  | 
c1ccc(SCCc2ccncc2)cc1 | > 100 | > 100 | > 100 | > 100 | > 100 | > 100 | > 100 | > 100 | > 100 | > 100 | > 100 |  |  |  |  |  |  |  |  | 
O=S(=O)(O)c1cc(S(=O)(=O)O)c2c(N=Nc3ccc(S(=O)(=O)O)c4ccccc34)c(O)ccc2c1 | > 100 | > 100 | > 100 | > 100 | > 100 | > 100 | > 100 | > 100 | > 100 | > 100 | > 100 |  |  |  |  |  |  |  |  | 
COc1nc2ccc(CNc3ccc(C(=O)NC(CCC(=O)O)C(=O)O)cc3)cc2nc1OC (stereo unspecified) | > 100 | > 100 |  | > 100 | > 100 | > 100 | > 100 | > 100 | > 100 | > 100 | > 100 |  |  |  |  |  |  |  |  | 
Nc1nc(SCCNC(=O)CCc2ccc(O)c(I)c2)nc2c1ncn2C1OC(CO)C(O)C1O (stereo unspecified) | > 100 | > 100 | > 100 | > 100 | > 100 | > 100 | > 100 |  | > 100 | > 100 | > 100 |  |  |  |  |  |  |  |  | 
COc1cc2c3c(n(CCCn4cncn4)c(=O)c2cc1OC)-c1cc2c(cc1C3=O)OCO2 | > 100 | 2.56 | > 100 | 1.16 | 59 | 28.1 | 0.242 | > 100 | > 100 | > 100 |  | 16.3 | < 0.01 | 0.567 | < 0.0131 | < 0.0283 | 1.49 | < 0.01 | 1.55 | > 100
CC(=O)OCC1=CC2OC(=O)C3=COC(OC4OC(CO)C(O)C(O)C4O)C1C32 (stereo unspecified) | > 100 | > 100 | > 100 | > 100 | > 100 |  |  | > 100 | > 100 | > 100 | > 100 |  |  |  |  |  |  |  |  | 
CC(=O)OCCCCN1C(=O)CSc2ccccc21 | > 100 | > 100 | > 100 | > 100 | > 100 |  | > 100 |  | > 100 | > 100 | > 100 |  |  |  |  |  |  |  |  | 
